Source: patent US20160052936A1, “SPIROINDOLINE DERIVATIVES FOR USE AS GONADOTROPIN-RELEASING HORMONE RECEPTOR ANTAGONISTS” (BAYER PHARMA AKTIENGESELLSCHAFT, priority 2013, published 2016)

What was measured:
[1] = molecular target: T1, human GnRH receptor (Homo sapiens, UniProt P30968); assay: IP-One HTRF assay with buserelin stimulation; format: cell-based; conditions: CHO cells stably expressing human GnRH receptor; buserelin at EC80; read-out: Potency in IP-One HTRF assay with buserelin (at EC80) stimulation, given as IC50
T1 construct: host or cells: CHO cells stably expressing human GnRH receptor (line established by Prof. Thomas Gudermann)
T1 sequence (P30968 1-328): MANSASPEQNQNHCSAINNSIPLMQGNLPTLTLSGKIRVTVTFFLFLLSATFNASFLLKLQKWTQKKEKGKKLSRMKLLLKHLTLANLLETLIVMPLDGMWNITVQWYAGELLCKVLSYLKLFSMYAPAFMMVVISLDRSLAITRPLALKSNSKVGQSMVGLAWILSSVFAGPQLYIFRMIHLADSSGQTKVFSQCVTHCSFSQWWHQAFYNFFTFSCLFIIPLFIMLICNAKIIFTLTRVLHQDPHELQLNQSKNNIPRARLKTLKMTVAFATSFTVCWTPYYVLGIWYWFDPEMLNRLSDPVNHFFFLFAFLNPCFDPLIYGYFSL
From the text: By using homogenous time-resolved fluorescence resonance energy transfer (HTRF), the generation of one component of the GnRH-R signalling cascade can be measured. After stimulation of CHO cells stably expressing human GnRH receptor (established by Prof. Thomas Gudermann, currently University of Marburg, Germany; supplied as frozen cell aliquots by Cell Culture Services, Hamburg, Germany) with the EC80 of the GnRH agonist buserelin, Gq protein-coupled receptor signalling cascade is activated resulting in PLC-dependent cleavage of PIP2 to Inositol-1,4,5-triphosphate (IP3) and Diacylglycerol. The second messenger IP3 is degraded intracellularly to myo-inositol. Inhibition of the final degradation step from Inositol-1-phosphate (IP1) to myo-inositol by addition of lithium chloride leads to accumulation of IP1 in the cells. In cell lysates, IP1 can be detected via an antibody-based HTRF detection technology, where IP1 can displace the FRET acceptor IP1-d2 from binding by Terbium-labelled anti-IP1 antibody as donor resulting in a signal decrease. Compounds were tested for their capability of inhibiting GnRH-R activation by buserelin. For all IP-One HTRF® assays reagents of Cisbio Bioassays (IP-One Tb Jumbo kit, #62IPAPEJ; Cisbio Bioassays, Bagnols sur Cèze Cedex, France) were used.
For the assay, frozen cell aliquots were thawed and a cell suspension (3.33×10^6 cells/mL) containing IP1-d2 (dilution 1:40) was prepared and incubated at 37° C. After 1 h 3 μl of the cell suspension were added to 50 nl of a 100-fold concentrated solution of the test compound in DMSO pre-dispensed in a well of a white low-volume 384-well microtiter plate (Greiner Bio-One, Frickenhausen, Germany). […] Plates were incubated for 1 h at 37° C. and 5% carbon dioxide before the cells were lysed by adding 3 μl Terbium-labelled anti-IP1 antibody (1:40) diluted in Conjugate & Lysis buffer as supplied with the kit. After an incubation for 1 h at 22° C. to enable complete cell lysis and antibody binding to free IP1 or IP1-d2, plates were measured in an HTRF reader, e.g. a RUBYstar, PHERAstar (both BMG Labtechnologies, Offenburg, Germany) or a Viewlux (PerkinElmer LAS, Rodgau-Jügesheim, Germany).
From the fluorescence emissions at 665 nm (FRET) and at 620 nm (background signal of Terbium-antibody), the ratio (emission at 665 nm divided by emission at 620 nm) was calculated and the data were normalized (reaction without test compound=0% inhibition; all other assay components except agonist=100% inhibition). On the same microtiter plate, compounds were tested at 10 different concentrations in the range of 20 μM to 1 nM (20 μM, 6.7 μM, 2.2 μM, 0.74 μM, 0.25 μM, 82 nM, 27 nM, 9.2 nM, 3.1 nM and 1 nM; dilution series prepared before the assay at the level of the 100-fold conc. stock solutions by serial 1:3 dilutions in 100% DMSO) in duplicate values for each concentration. By using an in-house software, the IC50 values were calculated by a 4 parameter fit.
Within the meaning of the present invention the antagonist activity is reflected by the ability of a compound of the invention to antagonize human GnRH receptor stimulation in IP-One HTRF® assay at least three times the standard deviation over the background level.

[2] = In vivo pharmacokinetics in rats; conditions: Wistar, rat, plasma, po, male rats, 2 mg/kg p.o.
Description: 2.4 In Vivo Pharmacokinetics in Rats
For in vivo pharmacokinetic experiments test compounds were administered to male Wistar rats intravenously at a dose of 0.5 mg/kg and intragastral at a dose of 2 mg/kg formulated as solutions using solubilizers such as PEG400 or Solutol in well-tolerated amounts.
For pharmacokinetics after intravenous administration test compounds were given as i.v. bolus and blood samples were taken at 2 min, 8 min, 15 min, 30 min, 45 min, 1 h, 2 h, 4 h, 7 h and 24 h after dosing. […] For pharmacokinetics after intragastral administration test compounds were given intragastral to fasted rats and blood samples were taken at 8 min, 15 min, 30 min, 45 min, 1 h, 2 h, 4 h, 7 h and 24 h after dosing. […] Blood was collected into Lithium-Heparintubes (Monovetten®, Sarstedt) and centrifuged for 15 min at 3000 rpm. An aliquot of 100 μL from the supernatant (plasma) was taken and precipitated by addition of 400 μL cold acetonitril and frozen at −20° C. over night. Samples were subsequently thawed and centrifuged at 3000 rpm, 4° C. for 20 minutes. Aliquots of the supernatants were taken for analytical testing using an Agilent 1200 HPLC-system with LCMS/MS detection. PK parameters were calculated by non-compartmental analysis using a PK calculation software.
PK parameters derived from concentration-time profiles after i.v.: CLplasma: Total plasma clearance of test compound (in L/kg/h); CLblood: Total blood clearance of test compound: CLplasma*Cp/Cb (in L/kg/h) with Cp/Cb being the ratio of concentrations in plasma and blood. PK parameters calculated from concentration time profiles after i.g.: Cmax: Maximal plasma concentration (in mg/L); Cmaxnorm: Cmax divided by the administered dose (in kg/L); Tmax: Time point at which Cmax was observed (in h). Parameters calculated from both, i.v. and i.g. concentration-time profiles: AUCnorm: Area under the concentration-time curve from t=0 h to infinity (extrapolated) divided by the administered dose (in kg*h/L); AUC(0−tlast)norm: Area under the concentration-time curve from t=0 h to the last time point for which plasma concentrations could be measured divided by the administered dose (in kg*h/L); t½: terminal half-life (in h); F: oral bioavailability: AUCnorm after intragastral administration divided by AUCnorm after intravenous administration (in %).

[3] = molecular target: T2, human GnRHR (Homo sapiens, UniProt P30968); assay: Tag-Lite receptor binding assay; conditions: Hek293 cells transiently transfected with human GnRHR; displacement of green-labelled GnRHR binding peptide; read-out: Potency in receptor binding assay using TAG-LITE technology, given as IC50
T2 construct: own knowledge: Tag-lite cells usually carry an N-terminal SNAP-tag fusion; host or cells: Hek293 cells, transiently transfected, supplied frozen
T2 sequence (P30968 1-328): T1 sequence (P30968 1-328)
From the text: 2.2. Tag-Lite® Receptor Binding Assay
This binding assay is based on the fluorescence resonance energy transfer between fluorescence donor labelled human GnRHR and a green-labelled GnRHR binding peptide. Compounds interfering with the ligand binding side of the human GnRHR will replace the labelled peptide resulting in a signal decrease. The assay principle was established by Cisbio Bioassays (Bagnols-sur-Cèze Cedex, France) and further details are available on their homepage.
The assay procedure was further optimized for use in-house with reduced assay volumes. Frozen Hek293 cells, transiently transfected with human GnRHR and Terbium-labelling of the receptor, were supplied by Cisbio Bioassays as well as Tag-Lite buffer and green-labelled GnRHR binding peptide. Cells were thawed and transferred to cold Tag-Lite buffer. A volume of 8 μl of this cell suspension were added to 100 nl of a 160-fold concentrated solution of the test compound in DMSO pre-dispensed in a well of a white low-volume 384-well microtiter plate (Greiner Bio-One, Frickenhausen, Germany). The mixture was incubated for 5 min at room temperature. In the next step either 4 μl Tag-Lite buffer or as control 4 μl of an exceeding amount unlabelled binding peptide in Tag-Lite buffer were transferred to the mixture. The green-labelled GnRHR binding peptide was added in a final step at EC50 in a volume of 4 μl Tag-Lite buffer. After an incubation of 1 h at room temperature plates were measured in a microplate reader, e.g. a PHERAstar (BMG Labtechnologies, Offenburg, Germany) by using a specific optic module.
A ratio from the fluorescence emissions at 520 nm (green fluorescence) and at 490 nm (background signal of Terbium-labelled GnRHR) was calculated and the data were normalized (reaction without test compound=0% inhibition of binding of green-labelled peptide; reaction without test compound with exceeding amount unlabelled binding peptide=100% inhibition of binding of green-labelled peptide). On the same microtiter plate, compounds were tested at 10 different concentrations in the range of 12.5 μM to 0.64 nM (12.5 μM, 4.2 μM, 1.4 μM, 0.46 μM, 0.15 μM, 51 nM, 17 nM, 5.7 nM, 1.9 nM and 0.64 nM; dilution series prepared before the assay at the level of the 160-fold conc. stock solutions by serial 1:3 dilutions in 100% DMSO) in duplicate values for each concentration. By using an in-house software, the IC50 values were calculated by a 4 parameter fit.

SMILES | IC50 [1] | half-life [2] | bioavailability ([2]; AUCnorm intragastral / AUCnorm i.v. (0.5 mg/kg), read-out: F (oral bioavailability)) | IC50 [3]
N#Cc1ccc(S(=O)(=O)N2c3ccc(C(=O)NCc4ncc(C(F)(F)F)cc4Cl)cc3C3(CCS(=O)(=O)CC3)[C@@H]2C2CC2)cc1 (single isomer, unassigned) [Example 8.1] | 10 nM | 5 h | 17% | 
O=C(NCc1ncc(C(F)(F)F)cc1Cl)c1ccc2c(c1)C1(CCS(=O)(=O)CC1)[C@@H](C1CC1)N2S(=O)(=O)c1ccc(F)cc1 [Example 3.2, (2R)—N-{[3-chloro-5-(trifluoromethyl)pyridin-2-yl]methyl}-2-cyclopropyl-1-[(4-fluorophenyl)sulfonyl]-1,2,2′,3′,5′,6′-hexahydrospiro[indole-3,4′-thiopyran]-5-carboxamide 1′,1′-dioxide] | 2430 nM |  |  | 748 nM
N#Cc1cccc(S(=O)(=O)N2c3ccc(C(=O)NCc4ncc(C(F)(F)F)cc4F)cc3C3(CCS(=O)(=O)CC3)C2C2CC2)c1 (racemic) [Example 9, 1-[(3-cyanophenyl)sulfonyl]-2-cyclopropyl-N-{[3-fluoro-5-(trifluoromethyl)pyridin-2-yl]methyl}-1,2,2′,3′,5′,6′-hexahydrospiro[indole-3,4′-thiopyran]-5-carboxamide 1′,1′-dioxide] | 311 nM |  |  | 
N#Cc1ccc(S(=O)(=O)N2c3ccc(C(=O)NCc4ncc(C(F)(F)F)cc4Cl)cc3C3(CCS(=O)(=O)CC3)C2C2CC2)cc1 (racemic) [Example 8, N-{[3-chloro-5-(trifluoromethyl)pyridin-2-yl]methyl}-1-[(4-cyanophenyl)sulfonyl]-2-cyclopropyl-1,2,2′,3′,5′,6′-hexahydrospiro[indole-3,4′-thiopyran]-5-carboxamide 1′,1′-dioxide] | 22 nM |  |  | 21.7 nM
O=C(NCc1ncc(C(F)(F)F)cc1F)c1ccc2c(c1)C1(CCS(=O)(=O)CC1)C(C1CC1)N2S(=O)(=O)c1cccc(OC(F)F)c1 (racemic) [Example 13, 2-cyclopropyl-1-{[3-(difluoromethoxy)phenyl]sulfonyl}-N-{[3-fluoro-5-(trifluoromethyl)pyridin-2-yl]methyl}-1,2,2′,3′,5′,6′-hexahydrospiro[indole-3,4′-thiopyran]-5-carboxamide 1′,1′-dioxide] | 423 nM |  |  | 
O=C(NCc1ncc(C(F)(F)F)cc1Cl)c1ccc2c(c1)C1(CC[S+]([O-])CC1)C(C1CC1)N2S(=O)(=O)c1ccc(F)cc1 (mixture of isomers) [Example 2, N-{[3-chloro-5-(trifluoromethyl)pyridin-2-yl]methyl}-2-cyclopropyl-1-[(4-fluorophenyl)sulfonyl]-1,2,2′,3′,5′,6′-hexahydrospiro[indole-3,4′-thiopyran]-5-carboxamide 1′-oxide] | 27 nM |  |  | 
N#Cc1ccc(S(=O)(=O)N2c3ccc(C(=O)NCc4ncc(C(F)(F)F)cc4F)cc3C3(CCS(=O)(=O)CC3)C2C2CC2)cc1 (single isomer, unassigned) [Example 7.2] | 57 nM |  |  | 
N#Cc1cccc(S(=O)(=O)N2c3ccc(C(=O)NCc4ncc(C(F)(F)F)cc4Cl)cc3C3(CCS(=O)(=O)CC3)[C@H]2C2CC2)c1 (single isomer, unassigned) [Example 10.2] | 1970 nM |  |  | 
O=C(NCc1ncc(C(F)(F)F)cc1F)c1ccc2c(c1)C1(CCS(=O)(=O)CC1)C(C1CC1)N2S(=O)(=O)c1ccc(OC(F)F)cc1 (racemic) [Example 15, 2-cyclopropyl-1-{[4-(difluoromethoxy)phenyl]sulfonyl}-N-{[3-fluoro-5-(trifluoromethyl)pyridin-2-yl]methyl}-1,2,2′,3′,5′,6′-hexahydrospiro[indole-3,4′-thiopyran]-5-carboxamide 1′,1′-dioxide] | 112 nM |  |  | 
